Laboratory results: patent US20240382597A1, “FORMULATIONS OF ANTI-INFLAMMATORY AGENTS COMPRISING MSM WITH ENHANCED SOLUBILITY IN WATER” (LIVIONEX, Inc., priority 2021, published 2024)

Assays:
[1] = solubility in water of anti-inflammatory agents, alone and in formulations comprising MSM; type: physicochemical
Text: The increases in solubility in water of certain representative anti-inflammatory agents in formulations comprising MSM (about 5.4% w/w; range between 0.1 wt. % to about 15 wt. %, typically around 5%) are as follows: […]

[2] = at 79° F.; cited from earlier work
[3] = in formulations comprising MSM (about 5.4% w/w; range 0.1 wt. % to about 15 wt. %)
[4] = without MSM (starting value of the increase)

Question: Which results are given for C[C@@H]1C[C@H]2[C@@H]3CCC4=CC(=O)C=C[C@]4(C)[C@@]3(F)[C@@H](O)C[C@]2(C)[C@@]1(O)C(=O)CO [Dexamethsone, dexamethasone]?
Answer: solubility in water [1, 3]: ~250 mg per ml of water; solubility in water [1, 4]: insoluble

Question: Which results are given for O=C(O)Cc1ccccc1Nc1c(Cl)cccc1Cl [Diclofenac, diclofenac]?
Answer: solubility in water [1, 3]: 50 mg per ml of water; solubility in water [1, 4]: 0.004 mg per ml of water

Question: Which solubility in water [1, 3] does the source give for CC(C)Cc1ccc(C(C)C(=O)O)cc1 (stereo not drawn) [Ibuprofen, ibuprofen] here?
Answer: ~150 mg per ml of water

Question: What about the solubility in water [1, 4] of the same compound?
Answer: insoluble

Question: Which water solubility [2] does the source give for CS(C)(=O)=O [MSM, methylsulfonylmethane] here?
Answer: 34 % w/v

Question: For COC(=O)c1ccccc1O [Methyl salicylate, methyl salicylate], which solubility in water [1, 3] is on record?
Answer: 0.013 mg per ml of water

Question: And the solubility in water [1, 4]?
Answer: 0.00065 mg per ml of water
